A short description of the data set: recombinant UMI read abundance after kanamycin selection (control-corrected) (log10(CPM+1)); higher = more efficient recombination; extreme values may be limits of the assay; sequences stand for … in AGTGCAGAGAAAATCGGCCAGTTTTCTCTGCCTGCAGTCCGCATGCCGTGGGACCCCTTGGGTTCTAACCTGTTGCCTAGATTTATGCAGCGGACTGCCTTTCTCCCAAAGTGATAAACCGG…AGGTTGGTTTCACT; site = the 11-nt donor. The method, boiled down: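 Values, expressed as log10(CPM+1), derive from recombinant UMI counts converted to CPM, averaged across replicates and scaled by control-derived factors. Plating was with IPTG (0.07 mM) plus kanamycin or unselected, two replicates each. The screen pooled donor and donor-binding-loop pairs for the IS621 bridge recombinase in Escherichia coli.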
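Also: IS621 bridge recombinase in Escherichia coli cells against a fixed T5 target plasmid.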

Turning to “CTAGTATCATGGACCGGTTTTCCCGGTAATCCGTATTTGAC (site CCAGTAGCTGT)”, the “recombinant UMI read abundance (log10)” value was determined as 0.

Regarding “CTAGTATCATGGACCGGTTTTCCCGGTAATCCGTATTTGAC (site CCAGTATCTGG)”, the “recombinant UMI read abundance (log10)” value stood at 0.

As to “CTAGTATCATGGACCGGTTTTCCCGGTAATCCGTATTTGAC (site CCAGTATCTGT)”, the “recombinant UMI read abundance (log10)” value was 2.69.

With “CTAGTATCATGGACCGGTTTTCCCGGTAATCCGTATTTGAC (site CCAGTATCTTT)”, the “recombinant UMI read abundance (log10)” value was 0.412.

Turning to “CTAGTATCATGGACCGGTTTTCCCGGTAATCCGTATTTGAC (site CCAGTTTCTGT)”, the “recombinant UMI read abundance (log10)” value is 0.

Consider “CTAGTATCATGGACCGGTTTTCCCGGTAATCCGTATTTGAC (site CCGGTATCTGT)”, for which the “recombinant UMI read abundance (log10)” value came out at 0.281.

For the sequence “CTAGTATCATGGACCGGTTTTCCCGGTAATCCGTATTTGAC (site CGAGGATCTGT)”, the “recombinant UMI read abundance (log10)” value was determined as 0.

As to “CTAGTATCATGGACCGGTTTTCCCGGTAATCCGTATTTGAC (site CGAGTACCTGT)”, the “recombinant UMI read abundance (log10)” value is 0.

Take “CTAGTATCATGGACCGGTTTTCCCGGTAATCCGTATTTGAC (site CGAGTATCTAT)”: the “recombinant UMI read abundance (log10)” value was 0.

With “CTAGTATCATGGACCGGTTTTCCCGGTAATCCGTATTTGAC (site CGAGTATCTGC)”, the “recombinant UMI read abundance (log10)” value is 0.

On to “CTAGTATCATGGACCGGTTTTCCCGGTAATCCGTATTTGAC (site CGAGTATCTGT)”, for which the “recombinant UMI read abundance (log10)” value came to 0.849.

In the case of “CTAGTATCATGGACCGGTTTTCCCGGTAATCCGTATTTGAC (site CGAGTGTCTGT)”, the “recombinant UMI read abundance (log10)” value is 0.

Take “CTAGTATCATGGACCGGTTTTCCCGGTAATCCGTATTTGAC (site CGATTATCTGT)”: the “recombinant UMI read abundance (log10)” value was 0.

As to “CTAGTATCATGGACCGGTTTTCCCGGTAATCCGTATTTGAC (site CGTGTATCTGT)”, the “recombinant UMI read abundance (log10)” value was 0.

For the sequence “CTAGTATCATGGACCGGTTTTCCCGGTAATCCGTATTTGAC (site CTAAAATCTGT)”, the “recombinant UMI read abundance (log10)” value was found to be 0.

Regarding “CTAGTATCATGGACCGGTTTTCCCGGTAATCCGTATTTGAC (site CTAATAACTGT)”, the “recombinant UMI read abundance (log10)” value was determined as 0.

As for “CTAGTATCATGGACCGGTTTTCCCGGTAATCCGTATTTGAC (site CTAATATCTCT)”, the “recombinant UMI read abundance (log10)” value came out at 0.764.

As to “CTAGTATCATGGACCGGTTTTCCCGGTAATCCGTATTTGAC (site CTAATATCTGA)”, the “recombinant UMI read abundance (log10)” value worked out at 0.

Take “CTAGTATCATGGACCGGTTTTCCCGGTAATCCGTATTTGAC (site CTAATATCTGT)”: the “recombinant UMI read abundance (log10)” value stood at 1.63.

Turning to “CTAGTATCATGGACCGGTTTTCCCGGTAATCCGTATTTGAC (site CTAATCTCTGT)”, the “recombinant UMI read abundance (log10)” value came out at 0.

For “CTAGTATCATGGACCGGTTTTCCCGGTAATCCGTATTTGAC (site CTACCATCTGT)”, the “recombinant UMI read abundance (log10)” value was found to be 0.

For “CTAGTATCATGGACCGGTTTTCCCGGTAATCCGTATTTGAC (site CTACTAGCTGT)”, the “recombinant UMI read abundance (log10)” value stood at 0.

Turning to “CTAGTATCATGGACCGGTTTTCCCGGTAATCCGTATTTGAC (site CTACTATCTGG)”, the “recombinant UMI read abundance (log10)” value was 0.

For “CTAGTATCATGGACCGGTTTTCCCGGTAATCCGTATTTGAC (site CTACTATCTGT)”, the “recombinant UMI read abundance (log10)” value came to 0.925.

Consider “CTAGTATCATGGACCGGTTTTCCCGGTAATCCGTATTTGAC (site CTACTATCTTT)”, for which the “recombinant UMI read abundance (log10)” value stood at 0.0334.

Consider “CTAGTATCATGGACCGGTTTTCCCGGTAATCCGTATTTGAC (site CTACTTTCTGT)”, for which the “recombinant UMI read abundance (log10)” value is 0.

With “CTAGTATCATGGACCGGTTTTCCCGGTAATCCGTATTTGAC (site CTAGAAACTGT)”, the “recombinant UMI read abundance (log10)” value stood at 0.

Regarding “CTAGTATCATGGACCGGTTTTCCCGGTAATCCGTATTTGAC (site CTAGAATCTCT)”, the “recombinant UMI read abundance (log10)” value worked out at 0.

“CTAGTATCATGGACCGGTTTTCCCGGTAATCCGTATTTGAC (site CTAGAATCTGA)”: the “recombinant UMI read abundance (log10)” value is 0.

The values above are taken from the supplement of paper PMC11208160.
